Data as given in article PMC4267622, “Pin1-mediated Sp1 phosphorylation by CDK1 increases Sp1 stability and decreases its DNA-binding activity during mitosis” (Nucleic Acids Research, 2014).

Columns and labels:
[1] = system: Sp1-binding probe of p21^WAF1/CIP1 promoter; experiment: DNA affinity precipitation assay (DAPA); conditions: mitotic extract of HeLa cells, 4°C, 1 h, three independent experiments
Description: Cell lysate incubated with 1 μg of binding probes in 500 μl binding of buffer (2 mM MgCl2, 60 mM KCl, 20 mM Tris-HCl pH 7.8, 5% glycerol, 0.5 mM EDTA and 0.02% NP-40). After incubation for 1 h at 4°C, the mixture was incubated with 30 μl of streptavidin-agarose beads (GE Healthcare Life Sciences) for 1 h at 4°C. The mixture was washed three times by binding buffer. The proteins in the beads were eluted by 2X sample buffer and analysed by SDS-PAGE and immunoblotting. The Sp1-binding probe 5′-[…]-3′, localized from −82 to −50 bp within the promoter of p21^WAF1/CIP1, was biotinylated at 5′ termini and then annealed with complementary strands.

HeLa cells [2] = experiment: Protein level of GFP-Sp1 constructs in HeLa cells (western blot); assay type: cell-based; conditions: equal amount of plasmids
Description: (§1) HeLa cells and mouse embryonic fibroblasts (MEFs) were cultured in DMEM containing 10% of FBS, 100μg/ml streptomycin sulfate and 100 units/ml penicillin G sodium at 37°C, 5% CO2. For transfection of GFP-Sp1, GFP-Sp1-T739A, GFP-Sp1-T739D, GFP-Sp1 (1-740), GFP-Sp1-4A, GFP-Sp1-4D, HA-Sp1, HA-Sp1-4A (S720A, T723A, T737A and T739A), HA-Sp1-4D (S720D, T723D, T737D and T739D), pGL2, pGL2-p21, Sp1 shRNA, or Pin1 shRNA, 2 μg of plasmids was incubated with 2 μl of Lipofectamine in 200 μl of OPTI-MEM for 30 min in room temperature. After incubation, the mixture of plasmids and Lipofectamine in OPTI-MEM was added into 2 ml of OPTI-MEM. The cells were incubated with the mixture of plasmids and Lipofectamine for 6 h. The cells were then incubated in fresh Dulbecco's modified Eagle's medium (DMEM) for 18 or 36 h. The cells were collected for immunoprecipitation or immunoblotting.
Cell lysates or immunoprecipitation samples were fractionated by sodium dodecyl sulfate-polyacrylamide gel electrophoresis (SDS-PAGE) and transferred to polyvinylidene fluoride (PVDF) membrane using a transfer apparatus according to the manufacturer's protocols (Bio-Rad). After incubation with 3% non-fat milk or 2% bovine serum albumin in Tris-buffered Saline with Tween 20 buffer (TBST buffer, 10 mM Tris-HCl pH 8.0, 150 mM NaCl and 0.5% Tween 20) for 1 h, membranes were incubated with antibodies at 4°C overnight. […]

RNF4 = RNF4 co-immunoprecipitation with GFP-Sp1 constructs; assay type: binding; conditions: HeLa, anti-GFP immunoprecipitation, vs full-length Sp1 (1–785)
Description: Cell lysates were prepared by using mRIPA buffer (50 mM Tris-HCl, pH 7.8, 150 mM NaCl, 5 mM ethylenediaminetetraacetic acid (EDTA), 0.1% Triton-X100, 0.05% NP-40). The lysates were incubated with anti-Sp1 (1:500), anti-CDK1 (1:200), anti-Pin1 (1:250), anti-HA tag (1:250), or anti-GFP tag (1:200) antibodies at 4°C for 1 h. After 1 h incubation, the mixture was incubated with Protein A or G Sepharose agarose beads at 4°C for 1 h. The beads were collected and washed three times by mRIPA buffer. The beads were added 2X electrophoresis sample buffer and analysed by immunoblotting.

p21^CIP/WAP = p21^CIP/WAP luciferase activity assay; assay type: cell-based; conditions: HeLa, vs GFP-Sp1 (1–785)
Description: as §1

HeLa cells [3] = experiment: Sp1 localisation on chromosomes during mitosis; assay type: cell-based; conditions: nocodazole 16 h
Description: The cells were fixed with 4% paraformaldehyde (Sigma-Aldrich) in PBS according to a method described previously ([3]). Immunostaining was conducted with primary antibodies such as anti-Sp1, anti-GFP tag (Santa Cruz Biotechnology, Santa Cruz, CA), or anti-Pin1 (Calbiochem, San Diego, CA) antibodies. The cells were then treated with Alexa Fluor 488-conjugated goat anti-mouse or rabbit immunoglobulin G (IgG) and Alexa Fluor 568-conjugated goat anti-mouse or rabbit IgG polyclonal antibodies (Jackson ImmunoResearch Laboratories Inc., West Grove, PA). Finally, the cells were mounted in 90% glycerol containing 4'-6-diamidino-2-phenylindole (DAPI) (Invitrogen), and examined using a confocal laser-scanning microscope (FluoView^TM FV 1000; Olympus, Melville, NY) or immunofluorescence microscope (Personal DV Applied Precision, Issaquah, WA). The images were analysed with softWoRx software (Applied Precision Inc.).

HeLa cells [4] = experiment: Flow cytometry with PI staining (cell cycle); assay type: cell-based; conditions: nocodazole 16 h
Description: The cells washed by cold PBS and then fixed in 70% alcohol or 4% paraformaldehyde at 4°C for 2 h. After fixation, the cells washed by cold PBS and treated with 0.1% TritonX-100, 10μg/ml RNase and 50 μg/ml propidium iodide for 1 h. The cells were analysed by flow cytometer (Cell Lab Quanta™ SC; Beckman Coulter or FACSCalibur; BD Biosciences).

Pin1 = experiment: Isothermal titration calorimetry binding of Sp1 peptides to Pin1; conditions: 25°C
Description: (§2) Additionally, two other point mutants of Pin1, K63A and C113A, which are PPIase-activity-deficient, were generated and used in the crystallographic experiments ([42]). For the crystallization and the thermodynamic parameters of Pin1 and Sp1 peptide binding analysis, protein expression and crystallization of Pin1 was performed in slightly modified as described previously ([41]). In brief, the gene for Pin1 was cloned into pET28a with an N-terminal His12-tag and a thrombin cleavage site. R14A, R14A/K63A and R14A/C113A mutants of Pin1 were generated using the PCR-based QuikChange site-directed mutagenesis kit (Agilent). The correct construct was transformed into E. coli BL-21 (DE3) competent cells for protein expression. Transformed BL21 (DE3) bacteria were grown in Luria Bertani (LB) medium containing […] kanamycin at 30°C. Bacteria were induced with 1 mM isopropyl β-D-thiogalactoside (IPTG) overnight at 20°C. Pin1 proteins were purified by Ni^2+-nitrilotriacetic acid affinity chromatography, digested with thrombin and further purified by second run of Ni^2+-nitrilotriacetic acid affinity chromatography. The protein was prepared at 10–20 mg/ml in 10mM HEPES pH 7.5 containing 100 mM NaCl and 1 mM DTT for crystallization. Crystals were grown from a drop composed of 1 ml of protein solution and 1 ml of reservoir solution consisting of 2.0–2.5 M (NH4)2SO4, 1–2% (w/v) PEG 400 and 1–2 mM DTT in 0.1M HEPES buffer pH 7.5 equilibrated at 4°C against 0.5 ml of reservoir solution using the hanging-drop vapor-diffusion method. Crystals of Pin1 in complex with Sp1 peptides were obtained in co-crystallization experiments with the Pin1 protein pre-mixed with 10-fold Sp1 peptide and incubated at 4°C for 4 h before crystallization.
Thermodynamic parameters of Pin1 and Sp1 peptide binding were determined using a Micro-Cal iTC200 (GE Healthcare Life Sciences). All samples were filtered with […] cutoff filters (Millipore). The buffer for Pin1 and Sp1 peptide solutions consisted of 10 mM HEPES pH 7.5, 100 mM NaCl and 1 mM DTT. A […] solution of Sp1 peptide was directly titrated into a solution of […] Pin1 in […] aliquots. The experiments were performed at 25°C. Data were then analysed using the software origin.
To confirm that Pin1 indeed affects the C-terminal conformation of Sp1, Pin1 was purified and oligopeptides of the region 735–745 of Sp1, with or without phosphate at Thr739, were synthesized for ITC and X-ray crystallography experiments (Figure 3). […] Furthermore, two other point mutants of Pin1, K63A and C113A, which are PPIase-activity-deficient, were generated and used in the crystallographic experiments ([42]).
Figure 3. Pin1 recruitment alters the conformation of C-terminal Sp1. (A) The binding analyses of Thr739-Sp1 (left panel) and Thr739(p)-Sp1 (right panel) peptides to Pin1 were determined by ITC. Representative plots from an ITC experiment are shown with raw data in the upper panel and curve fit in the lower panel. The Thr739-Sp1 or Thr739(p)-Sp1 peptides were titrated into the reaction cell containing Pin1 protein. […] The 2Fo–Fc electron density is shown in blue color, contoured at 1σ. […] Overall structure (i) and a close-up view of the active-site pocket of Pin1 (ii). […] Positive charges on the electrostatic surfaces are drawn in blue and negative charges in red.

Pin1 R14A mutant = experiment: X-ray crystallography of Sp1 peptide with Pin1 R14A; assay type: binding; conditions: co-crystallization, Pin1 pre-mixed with 10-fold peptide, 4°C for 4 h
Description: as §2, with “Crystals were grown from a drop composed of 1 ml of protein solution and 1 ml of reservoir solution consisting of 2.0–2.5 M (NH4)2SO4, 1–2% (w/v) PEG 400 and 1–2 mM DTT in 0.1M HEPES buffer pH 7.5 equilibrated at 4°C against 0.5 ml of reservoir solution using the hanging-drop vapor-diffusion method. Crystals of Pin1 in complex with Sp1 peptides were obtained in co-crystallization experiments with the Pin1 protein pre-mixed with 10-fold Sp1 peptide and incubated at 4°C for 4 h before crystallization.” left out
(§3) All crystals were flash-cooled to 100 K in a stream of cold nitrogen prior to data collection. […] The electron density was calculated by Refmac5 ([43]). […]

Pin1 R14A/C113A mutant = experiment: X-ray crystallography of Sp1 peptide with Pin1 R14A/C113A; assay type: binding; conditions: ablated isomerase activity; co-crystallization, 10-fold peptide, 4°C for 4 h
Description: as §2, with “Crystals were grown from a drop composed of 1 ml of protein solution and 1 ml of reservoir solution consisting of 2.0–2.5 M (NH4)2SO4, 1–2% (w/v) PEG 400 and 1–2 mM DTT in 0.1M HEPES buffer pH 7.5 equilibrated at 4°C against 0.5 ml of reservoir solution using the hanging-drop vapor-diffusion method. Crystals of Pin1 in complex with Sp1 peptides were obtained in co-crystallization experiments with the Pin1 protein pre-mixed with 10-fold Sp1 peptide and incubated at 4°C for 4 h before crystallization.” left out
as §3

For “GFP-Sp1 (1–740): GFP-Sp1 lacking the C-terminal end (741–785)”, the “DNA-binding activity to the p21^CIP/WAP promoter” value [1] was “increased the DNA-binding activity of Sp1 during mitosis”, the protein level (HeLa cells [2]) was “higher than that of GFP-Sp1 (1–785)” and the “interaction with RNF4” value (RNF4) was “decreased interaction between RNF4 and GFP-Sp1 (1–740)”. For the same substance, the “transcriptional activity of p21^CIP/WAP” value (p21^CIP/WAP) was “increased the transcriptional activity of p21^CIP/WAP”.

For “Sp1-4D: Sp1 mutant S720D, T723D, T737D and T739D”, the “DNA-binding activity to the p21^CIP/WAP promoter” value [1] was “decreased the DNA-binding activity of Sp1 to the p21^CIP/WAP promoter”, the “removal from chromosomes during mitosis” value (HeLa cells [3]) was “completely removed from the chromosomes” and the cells entered mitosis (HeLa cells [4]) was 75%.

“Thr739(p)-Sp1 peptide: oligopeptide of the region 735–745 of Sp1, with phosphate at Thr739” was tested, and the Ka (Pin1; ITC curve fit, 10 mM HEPES pH 7.5, 100 mM NaCl, 1 mM DTT) was 7.4 ± 1.4 × 10^3 M^−1, the “N (stoichiometry of bound Thr739(p)-Sp1 peptide per Pin1 protein)” value (Pin1; ITC curve fit, pH 7.5) was 0.93 ± 0.25 and the ΔH (Pin1; ITC curve fit, pH 7.5) was -6.8 ± 2.2 kcal/mol. The ΔS (Pin1; ITC curve fit, pH 7.5) was -5.0 cal/mol/K, the “interaction with Pin1” value (Pin1; ITC, 10 mM HEPES pH 7.5, 100 mM NaCl, 1 mM DTT) was “Pin1 could interact with the Thr739(p)-Sp1 peptide” and the “configurations of electron density map of bound peptide” value (Pin1 R14A mutant) was “one configuration”. For the same substance, the “configurations of electron density map of bound peptide” value (Pin1 R14A/C113A mutant) was “two configurations”.
